{"source": "paper PMC6530635", "about": "“A Novel Single-Site Mutation in the Catalytic Domain of Protoporphyrinogen Oxidase IX (PPO) Confers Resistance to PPO-Inhibiting Herbicides” (Frontiers in Plant Science, 2019)", "origin": "cited, not measured here", "system": "Amaranthus palmeri MIS-D population", "parameters": "method as in Salas-Perez et al., 2017", "conditions": "MIS-D field population; 1X dose; ref Salas-Perez et al., 2017; cited from earlier work", "data": [{"smiles": "Cc1nn(-c2cc(CC(Cl)C(=O)O)c(Cl)cc2F)c(=O)n1C(F)F", "note": "(stereo not shown) [Carfentrazone]", "values": [{"measurement": "Frequency of resistant plants", "value": 20, "unit": "%"}]}]}
